Measured values: patent publication US20250281424A1 (New York Blood Center, Inc, priority 2020, published 2025)
Like-named read-outs stand apart in the source and are kept apart here.

Biological target: T1, human PF4 (Homo sapiens, UniProt P02776)
T1 construct: PF4 is a 70 amino acid, lysine-rich 7.8 kDa platelet-specific protein; made in house; host or cells: Escherichia coli BL21DE3 pLysS (pT7-7) and/or Drosophila S2 cells
T1 sequence (P02776 32-101): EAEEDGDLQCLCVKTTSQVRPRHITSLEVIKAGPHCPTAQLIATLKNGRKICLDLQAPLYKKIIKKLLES
Test: Inhibition of PF4 tetramer formation (BS3 cross-linking, SDS-PAGE)
Format: biochemical
Details: for inhibition at 1 µM: 1 μM inhibitor; for inhibition at 1 µM / inhibition at 3 µM / inhibition at 5 µM / inhibition at 10 µM: read-out: % inhibition of PF4 tetramer formation at single concentration of inhibitor; for inhibition at 3 µM: 3 μM inhibitor (column A); for inhibition at 5 µM: 5 μM inhibitor; for inhibition at 10 µM: 10 μM inhibitor (column A)
Procedure, shortened: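 Monomer, dimer, trimer and tetramer fractions were quantified by densitometry after reducing 12% SDS-PAGE of BS3-cross-linked (0.2 mM, 30 min, room temperature) PF4. Before cross-linking, 10 μg/ml E. coli-expressed human WT PF4 in PBS was exposed to compound for 15 min at 37° C or 60 min at room temperature; controls lacked compound.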

[1] = read-out: IC50 of PF4 tetramer formation inhibition

| SMILES | inhibition at 1 µM [%] | inhibition at 3 µM [%] | inhibition at 5 µM [%] | inhibition at 10 µM [%] | IC50 [1] [µM] | IC50 [µM] |
| --- | --- | --- | --- | --- | --- | --- |
| CO[C@@H](C)C(=O)C1C(=O)c2ccc(Oc3ccc4c(c3)C(=O)C(C(=O)[C@H](C)OC)C4=O)cc2C1=O (stereo partly drawn) [Example 248, 2-[(2S)-2-methoxypropanoyl]-5-({2-[(2S)-2-methoxypropanoyl]-1,3-dioxo-2,3-dihydro-1H-inden-5-yl}oxy)-2,3-dihydro-1H-indene-1,3-dione] | 26 | 56 |  |  |  | 3 |
| NCC(=O)C1C(=O)c2ccc(Oc3ccc4c(c3)C(=O)C(C(=O)CN)C4=O)cc2C1=O (stereo not drawn) [Example 326, 2-(2-aminoacetyl)-5-{[2-(2-aminoacetyl)-1,3-dioxo-2,3-dihydro-1H-inden-5-yl]oxy}-2,3-dihydro-1H-indene-1,3-dione] | 13 | 26 |  |  |  |  |
| COC1CCC(C(=O)C2C(=O)c3ccc(S(=O)(=O)c4ccc5c(c4)C(=O)C(C(=O)C4CCC(OC)CC4)C5=O)cc3C2=O)CC1 (stereo not drawn) [Example 151, 2-(4-methoxycyclohexanecarbonyl)-5-{[2-(4-methoxycyclohexanecarbonyl)-1,3-dioxo-2,3-dihydro-1H-inden-5-yl]sulfonyl}-2,3-dihydro-1H-indene-1,3-dione] |  |  | 89 | 100 | ~6 |  |
| O=C(COc1ccccc1)C1C(=O)c2ccc(S(=O)(=O)c3ccc4c(c3)C(=O)C(C(=O)COc3ccccc3)C4=O)cc2C1=O (stereo not drawn) [Example 144, 5-{[1,3-dioxo-2-(2-phenoxyacetyl)-2,3-dihydro-1H-inden-5-yl]sulfonyl}-2-(2-phenoxyacetyl)-2,3-dihydro-1H-indene-1,3-dione] |  |  |  |  | 4.7 |  |
| COC(=O)CCCC(=O)C1C(=O)c2ccc(C(=O)c3ccc4c(c3)C(=O)C(C(=O)CCCC(=O)OC)C4=O)cc2C1=O (stereo not drawn) [Example 225, methyl 5-{5-[2-(5-methoxy-5-oxopentanoyl)-1,3-dioxo-2,3-dihydro-1H-indene-5-carbonyl]-1,3-dioxo-2,3-dihydro-1H-inden-2-yl}-5-oxopentanoate] |  |  | 87 | 90 | 3.2 |  |
| CC(C)(C)OC(=O)N1CSC[C@H]1C(=O)C1C(=O)c2ccc(C(=O)c3ccc4c(c3)C(=O)C(C(=O)[C@@H]3CSCN3C(=O)OC(C)(C)C)C4=O)cc2C1=O (stereo partly drawn) [Example 129, tert-butyl (4R)-4-(5-{2-[(4R)-3-[(tert-butoxy)carbonyl]-1,3-thiazolidine-4-carbonyl]-1,3-dioxo-2,3-dihydro-1H-indene-5-carbonyl}-1,3-dioxo-2,3-dihydro-1H-indene-2-carbonyl)-1,3-thiazolidine-3-carboxylate] |  |  |  |  | ~2 |  |
| O=C(c1ccc2c(c1)C(=O)C(C(=O)C1CCN(C(=O)OCc3ccccc3)C1)C2=O)c1ccc2c(c1)C(=O)C(C(=O)C1CCN(C(=O)OCc3ccccc3)C1)C2=O (stereo not drawn) [Example 159, benzyl 3-[5-(2-{1-[(benzyloxy)carbonyl]pyrrolidine-3-carbonyl}-1,3-dioxo-2,3-dihydro-1H-indene-5-carbonyl)-1,3-dioxo-2,3-dihydro-1H-indene-2-carbonyl]pyrrolidine-1-carboxylate] |  |  | 85 | 90 | 3.8 |  |
| O=C1c2ccc(S(=O)(=O)c3ccc4c(c3)C(=O)C(C(=O)C3CC3)C4=O)cc2C(=O)C1C(=O)C1CC1 (stereo not drawn) [Example 402, 2-cyclopropanecarbonyl-5-[(2-cyclopropanecarbonyl-1,3-dioxo-2,3-dihydro-1H-inden-5-yl)sulfonyl]-2,3-dihydro-1H-indene-1,3-dione] | 24 | 28 |  |  |  |  |

Now from value to compound, other results behind:

| inhibition at 1 µM [%] | inhibition at 3 µM [%] | inhibition at 5 µM [%] | inhibition at 10 µM [%] | IC50 [1] [µM] | SMILES | IC50 [µM] |
| --- | --- | --- | --- | --- | --- | --- |
| 15 | 36 |  |  |  | C[C@H](NC(=O)C1C(=O)c2ccc(S(=O)(=O)c3ccc4c(c3)C(=O)C(C(=O)N[C@@H](C)C(=O)O)C4=O)cc2C1=O)C(=O)O (stereo partly drawn) [Example 318, (2S)-2-({5-[(2-{[(1S)-1-carboxyethyl]carbamoyl}-1,3-dioxo-2,3-dihydro-1H-inden-5-yl)sulfonyl]-1,3-dioxo-2,3-dihydro-1H-inden-2-yl}formamido) propanoic acid] |  |
|  |  | 59 | 66 | 3.61 | O=C(c1ccc2c(c1)C(=O)C(C(=O)NCc1ccc(F)cc1)C2=O)c1ccc2c(c1)C(=O)C(C(=O)NCc1ccc(F)cc1)C2=O (stereo not drawn) [Example 26, 5,5′-carbonylbis(1,3-dioxo-indan-2-carboxylic acid ((4-fluorophenyl)methyl)-amide)] |  |
|  |  |  |  | 1.05 | CCOC(=O)C1(C(C)=O)C(=O)c2ccc(Oc3ccc4c(c3)C(=O)CC4=O)cc2C1=O (stereo not drawn) [Example 6, 2-acetyl-5-(1,3-dioxo-indan-5-yloxy)-1,3-dioxo-indan-2-carboxylic acid ethyl ester] |  |
| 39 | 74 |  |  | 1.35 | CC(C)C[C@@H](N)C(=O)C1C(=O)c2ccc(Oc3ccc4c(c3)C(=O)C(C(=O)[C@H](N)CC(C)C)C4=O)cc2C1=O (stereo partly drawn) [Example 357, 2-[(2R)-2-amino-4-methylpentanoyl]-5-({2-[(2R)-2-amino-4-methylpentanoyl]-1,3-dioxo-2,3-dihydro-1H-inden-5-yl}oxy)-2,3-dihydro-1H-indene-1,3-dione] |  |
| 14 | 50 |  |  |  | CC(=O)NCCCC(=O)C1C(=O)c2ccc(C(=O)c3ccc4c(c3)C(=O)C(C(=O)CCCNC(C)=O)C4=O)cc2C1=O (stereo not drawn) [Example 269, N-(4-{5-[2-(4-acetamidobutanoyl)-1,3-dioxo-2,3-dihydro-1H-indene-5-carbonyl]-1,3-dioxo-2,3-dihydro-1H-inden-2-yl}-4-oxobutyl)acetamide] |  |
| 19 | 27 |  |  | 3 | CCOCC(=O)C1C(=O)c2ccc(Oc3ccc4c(c3)C(=O)C(C(=O)COCC)C4=O)cc2C1=O (stereo not drawn) [Example 247, 2-(2-ethoxyacetyl)-5-{[2-(2-ethoxyacetyl)-1,3-dioxo-2,3-dihydro-1H-inden-5-yl]oxy}-2,3-dihydro-1H-indene-1,3-dione] |  |
|  |  | 38 | 66 |  | O=C(NCC1CCCO1)C1C(=O)c2ccc(S(=O)(=O)c3ccc4c(c3)C(=O)C(C(=O)NCC3CCCO3)C4=O)cc2C1=O (stereo not drawn) [Example 89, 5-[(1,3-dioxo-2-{[(oxolan-2-yl)methyl]carbamoyl}-2,3-dihydro-1H-inden-5-yl)sulfonyl]-1,3-dioxo-N-[(oxolan-2-yl)methyl]-2,3-dihydro-1H-indene-2-carboxamide] |  |
| 18 | 55 |  |  |  | O=C1c2ccc(Oc3ccc4c(c3)C(=O)C(C(=O)[C@H]3CCCN3)C4=O)cc2C(=O)C1C(=O)[C@@H]1CCNC1 (stereo partly drawn) [Example 356, 5-({1,3-dioxo-2-[(3R)-pyrrolidine-3-carbonyl]-2,3-dihydro-1H-inden-5-yl}oxy)-2-[(2R)-pyrrolidine-2-carbonyl]-2,3-dihydro-1H-indene-1,3-dione] |  |
|  |  | 94 | 97 | 1.4 | O=C(c1ccc2c(c1)C(=O)C(C(=O)[C@@H]1C[C@H]1C(=O)O)C2=O)c1ccc2c(c1)C(=O)C(C(=O)[C@@H]1C[C@H]1C(=O)O)C2=O (stereo in doubt) [Example 222, (1R,2R)-2-(5-{2-[(1R,2R)-2-carboxycyclopropanecarbonyl]-1,3-dioxo-2,3-dihydro-1H-indene-5-carbonyl}-1,3-dioxo-2,3-dihydro-1H-indene-2-carbonyl)cyclopropane-1-carboxylic acid] |  |
